In test [1] the target is T1, Phosphodiesterase isozyme 4 (Homo sapiens, UniProt Q86V67).
T1 sequence (Q86V67 whole entry): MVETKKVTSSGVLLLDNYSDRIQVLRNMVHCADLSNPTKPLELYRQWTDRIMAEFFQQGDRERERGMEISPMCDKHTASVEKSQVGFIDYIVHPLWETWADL
Put plainly: Inhibition of PDE4 (unknown origin).

Another test has as its target Phosphodiesterase 3 (Homo sapiens, UniProt Q14432+Q13370). Put plainly: Inhibition of PDE3 (unknown origin). It is filed as protein assay.

On to `COc1ccc(C2=NN(CCCCCc3ccccc3)C(=O)CC2)cc1OC`, for which the concentration for half-maximal inhibition (IC50) in test [1] is 0.9 nM. In other words, the sub-nanomolar range.
`CCOc1cc(C(CS(C)(=O)=O)N2C(=O)c3csc(NC(C)=O)c3C2=O)ccc1OC` (stereo not given) had a concentration for half-maximal inhibition (IC50) in test [1] of 26 nM.
Still for that read-out and setting: as for `CNc1nc(-c2cccc(NC(=O)c3ccc(C(=O)OC)cc3)c2)c2cc(OC)c(OC)cc2n1` [LOTAMILAST], the figure is 2.8 nM.
On to `O=C(Cc1c(Cl)c[n+]([O-])cc1Cl)c1ccc(OC(F)F)c2c1OC1(CCS(=O)(=O)CC1)O2` [ORISMILAST], for which the IC50 against Phosphodiesterase 3 came out at 0.4 nM; in test [1] it was 1480 nM.

(Values after ChEMBL document CHEMBL5385892, “Advances in the development of phosphodiesterase-4 inhibitors” (Eur J Med Chem, 2023).)
